Tests used:
[1] = system: Salmonella typhimurium tester strains (TA1535, TA1537, TA98, TA100); assay: Ames bacterial reverse mutation assay, vapor-phase exposure by desiccator methodology; type: cell-based; details: for mutagenicity / toxicity of the single isomer as concluded from the Ames tests of mixture and purified material: conclusion from comparing the 71.2/28.5 trans/cis mixture with the 96.5 wt % trans material
Method: (§1) Toxological testing was undertaken as part of the evaluation of HCFO-1233zd as a blowing agent. Ames testing was performed on a blend of trans- and cis- HCFO-1233zd and purified trans- HCFO-1233zd. The Ames test is a study designed to determine if a material can interact with DNA and cause point mutations, i.e. to determine if a material is mutagenic. Many carcinogenic materials are also mutagenic and this assay is often used as a quick screen for potential to cause an adverse effect on genetic material. It utilizes several strains of bacteria (Salmonella typhimurium and E. coli) and is often routinely included when developing the toxicology profile of a substance. If a substance substantially increases the mutation rate in the bacterial tester strains, the study result is defined as positive and the test substance is considered to be mutagenic.
(§2) The purpose of the study was to evaluate the mutagenic potential of the test article vapor by measuring it ability to induce reverse mutations at selected loci of several stains of Salmonella typhimurium and at the tryptophan locus of Escherichia coli strains WP2 uvrA in the presence and absence of Aroclor-induced rat liver S9. The test system was exposed to the test article via desiccator methodology. For each replicate plating, the mean and standard deviation of the number of revertants per plate were calculated and reported. Negative and positive controls were also run.
(§3) For the test article to be evaluated positive, it must cause a dose-related increase in the mean revertants per plate of at least one tester strain over a minimum of two increasing concentrations of test article. Data for tester strains TA1535 and TA1537 were judged positive if the increase in mean revertants at the peak of the dose response is equal to or judged greater than 3.0-times the mean vehicle control value. Data sets for tester strains TA98, TA100 and WP2 uvrA were judged positive if the increase in mean revertants at the peak of the dose response is equal to or greater than 2.0-times the mean vehicle control value.

[2] = system: Escherichia coli strains WP2 uvrA (tryptophan locus); assay: as above; type: cell-based; details: E. coli WP2 uvrA
Method: as §1, §2, §3

Row | Structure (SMILES) | mutagenicity / toxicity of the single isomer as concluded from the Ames tests of mixture and purified material [1] | Ames test result (mutagenic response) ([2]; presence and absence of Aroclor-induced rat liver S9) | toxicity to tester strains ([2]; with and without S9) | Ames test result (mutagenic response) ([1]; Salmonella typhimurium tester strains, presence and absence of Aroclor-induced rat liver S9) | toxicity to tester strains ([1]; Salmonella typhimurium tester strains, with and without S9) | mutagenicity / toxicity of the single isomer as concluded from the Ames tests of mixture and purified material ([1]; listed as trans isomer)
1 | FC(F)(F)/C=C\Cl [cis-isomer, cis-1-chloro-3,3,3-trifluoropropene] | active mutagenic agent | – | – | – | – | –
2 | FC(F)(F)C=CCl [purified material, 1-chloro-3,3,3-trifluoropropene] | – | did not cause a positive mutagenic response | No toxicity was observed | did not cause a positive mutagenic response | No toxicity was observed | –
3 | FC(F)(F)/C=C/Cl [trans-isomer of 1-chloro-3,3,3-trifluoropropene, trans-1-chloro-3,3,3-trifluoropropene] | less toxic | – | – | – | – | significantly lower genotoxicity

From US9738768B2, “Blowing agent composition of hydrochlorofluoroolefin” (Arkema Inc., priority 2007, dated 2017)
